Measured values taken from US5962531A, “5-aroylnaphthalene derivatives as anti-inflammatory agents” (Syntex (U.S.A.) Inc., priority 1998, dated 1999).

Columns and labels:
COX II = molecular target: T1, COX II (Homo sapiens, UniProt P35354); assay: Inhibition of COX II in vitro (radiometric assay, partially purified enzyme); assay type: biochemical
T1 construct: made in house; baculovirus-infected insect cells according to the cited Barnett et al. 1994 (own knowledge)
T1 sequence (P35354 18-604): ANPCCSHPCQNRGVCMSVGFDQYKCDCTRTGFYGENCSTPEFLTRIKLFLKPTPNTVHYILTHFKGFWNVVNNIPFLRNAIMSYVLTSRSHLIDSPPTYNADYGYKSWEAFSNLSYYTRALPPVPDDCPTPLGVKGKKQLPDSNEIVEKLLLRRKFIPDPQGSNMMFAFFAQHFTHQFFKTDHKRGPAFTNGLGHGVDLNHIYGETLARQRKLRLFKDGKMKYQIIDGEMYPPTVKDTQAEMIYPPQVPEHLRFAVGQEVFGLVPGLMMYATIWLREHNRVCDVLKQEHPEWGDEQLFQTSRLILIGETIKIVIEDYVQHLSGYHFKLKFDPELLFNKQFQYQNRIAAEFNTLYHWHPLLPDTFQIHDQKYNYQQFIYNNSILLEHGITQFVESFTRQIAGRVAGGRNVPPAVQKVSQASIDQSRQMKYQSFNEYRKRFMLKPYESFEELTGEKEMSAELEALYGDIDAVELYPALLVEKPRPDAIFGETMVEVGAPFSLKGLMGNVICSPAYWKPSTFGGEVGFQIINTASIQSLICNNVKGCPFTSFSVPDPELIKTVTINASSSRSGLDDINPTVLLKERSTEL
Experimental: (§1) The COX I and COX II inhibitory activity of compounds of this invention in vitro was determined using partially purified COX I and COX II enzymes, prepared as described in J. Barnett et. al., Biochim. Biophys.
(§2) COX I and COX II samples were diluted with Tris-HCl buffer (SOmM Tris-HCl, pH 7.9) containing 2 mM EDTA and 10% glycerol and reconstituted by incubating first with 2 mM phenol for 5 minutes and then with 1 micromolar hematin for an additional 5 minutes. 125 μl of the reconstituted COX I or COX II enzyme were preincubated for 10 minutes at room temperature in a shaking water bath with the compounds of the invention dissolved in 2-15 μl of DMSO or the carrier vehicles (control samples). The enzyme reaction was initiated by adding 25 μl of 1-[14 C]arachidonic acid (80,000-100,000 cpm/tube; 20 micromolar final concentration) and the reaction was allowed to continue for an additional 45 seconds. The reaction was terminated by adding 100 μl of 2N HCl and 750 μl water. An aliquot (950 μl) of the reaction mixture was loaded onto a 1 ml C18 Sep-Pak column (J. T. Baker, Phillipsburg, N.J.) which had been previously washed with 2-3 ml methanol and equilibrated with 5-6 ml distilled water. Oxygenated products were quantitatively eluted with 3 ml of acetonitrile/water/acetic acid (50:50:0.1, v/v) and the radioactivity in the eluate determined in a scintillation counter.

COX I = molecular target: T2, COX I (Homo sapiens, UniProt P23219); assay: Inhibition of COX I in vitro (radiometric assay, partially purified enzyme); assay type: biochemical
T2 construct: made in house; baculovirus-infected insect cells according to the cited Barnett et al. 1994 (own knowledge)
Experimental: as §1, §2

[1] = tested on: carrageenan-induced paw edema; assay: Inhibition of carrageenan-induced paw edema in the rat; assay type: in vivo; conditions: oral, female rats
Experimental: The anti-inflammatory activity of compounds of this invention was determined by measuring the inhibition of carrageenan-induced paw edema in the rat, using a modification of the method described in Winter C. A. et al., "Carrageenan-Induced Edema in Hind Paw of the Rat as an Assay for Anti-inflammatory Drugs" Proc. Soc. Exp. Biol. Med. 111, 544-547, (1962). This assay has been used as a primary in vivo screen for anti-inflammatoryactivity of most NSAIDs, and is considered predictive of human efficacy. Briefly, test materials were administered orally to female rats in a volume of 1 ml prepared as solutions or suspensions in an aqueous vehicle containing 0.9% sodium chloride, 0.5% sodium carboxymethyl-cellulose, 0.4% polysorbate 80, 0.9% benzyl alcohol and 97.3% distilled water. Control rats received vehicle alone. After 1 h 0.05 ml of a 0.5% solution of Carrageenan (Type IV Lambda, Sigma Chemical Co.) in 0.9% saline was injected into the subplantar region of the right hind paw. Three hours later the rats were euthanized in a carbon dioxide atmosphere; hind paws were removed by severing at the tatso-crural joint; and the left and right paws were weighed. The increase in weight of the right paw over the left paw was obtained for each animal and the mean increases were calculated for each group. The anti-inflammatory activity of the test materials is expressed as the percent inhibition of the increase in hind paw weight of the test group relative to the vehicle dosed control group.
The anti-inflammatory activities (expressed as % inhibition) of some of the compounds of the invention were: […]

PGE2 = assay: Inhibition of eicosanoid (prostaglandin E2) synthesis in vivo, carrageenan air-pouch model in rats; parameters: species or system rat; conditions: oral, male rats
Experimental: In this assay, an air-pouch is created in the rat and the PGE2 levels in the air-pouch exudate are measured by enzyme immunoassay. Briefly, male rats were anesthetized using a 60:40 CO2 :O2 mixture and subsequently injected subcutaneously with 20 ml of sterilized air, under aseptic conditions, in the proximal area of the dorsum. This injection of sterile air causes the creation of a subcutaneous "air pouch". The next day, a further 10 ml of sterile air was injected into the previously formed pouch using the same technique. […] Control rats received vehicle alone. After 30 minutes, 5 ml of a 0.5% solution of carrageenan (Sigma, Lambda Type IV) was injected into the air pouch. The rats were euthanized 3 or 6 h after the compound administration. […] The total exudate volume was recorded, and the samples were analyzed for PGE2 and 6-keto PGF1 by ELISA (Titerzyme®, PerSeptive Diagnostics, Boston, Mass.) and TxB2 by radioimmuno assay (New England Nuclear Research, Boston, Mass., Catalog No. NEK-037), according to the manufacturer's directions.
The mean concentrations of PGE2 were calculated for each group. The anti-inflammatory activity of test materials is expressed as the percent inhibition of PGE2 formation in the test group relative to the control group.

Alzheimer's patients = conditions: Rogers, J., et. al., Neurology, 43, 1609, (1993); cited from earlier work

T2 sequence (P23219 24-599): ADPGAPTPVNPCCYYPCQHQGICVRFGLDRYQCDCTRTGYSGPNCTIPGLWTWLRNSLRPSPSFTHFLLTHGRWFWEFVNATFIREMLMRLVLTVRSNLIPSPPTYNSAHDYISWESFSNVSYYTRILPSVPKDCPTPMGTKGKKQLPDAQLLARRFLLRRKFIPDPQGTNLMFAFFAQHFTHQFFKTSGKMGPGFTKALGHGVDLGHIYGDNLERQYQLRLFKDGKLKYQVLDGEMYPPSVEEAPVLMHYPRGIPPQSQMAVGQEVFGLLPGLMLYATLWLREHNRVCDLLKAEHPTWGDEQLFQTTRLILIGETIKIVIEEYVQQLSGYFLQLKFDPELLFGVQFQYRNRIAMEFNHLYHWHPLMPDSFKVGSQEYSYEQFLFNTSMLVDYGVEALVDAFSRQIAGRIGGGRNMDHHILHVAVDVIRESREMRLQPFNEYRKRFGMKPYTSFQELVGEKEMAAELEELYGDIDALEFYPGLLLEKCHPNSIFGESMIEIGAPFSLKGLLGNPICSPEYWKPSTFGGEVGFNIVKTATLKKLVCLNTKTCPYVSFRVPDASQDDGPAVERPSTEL

| IC50 (COX II) | IC50 (COX I) | Structure (SMILES) | % Inhibition of paw edema ([1]; 30 mg/Kg) | other results |
| --- | --- | --- | --- | --- |
| 0.68 µM | 62.5 µM | COc1ccc2cc(S(N)(=O)=O)ccc2c1C(=O)c1cccc(F)c1 [compound 15, 5-(3-fluorobenzoyl)-6-methoxy-2-naphthalenesulfonamide] |  |  |
| 0.8 µM | > 100 µM | CS(=O)(=O)c1ccc2c(C(=O)c3ccccc3)c(C#N)ccc2c1 [compound 97, 5-benzoyl-6-cyano-2-methylsulfonylnaphthalene] | 40% | % Inhibition of air pouch PGE2 formation (PGE2; 3 mg/Kg): 90% |
| 0.84 µM | 2.8 µM | COc1ccc2cc(S(N)(=O)=O)ccc2c1C(=O)c1ccc(C)cc1 [compound 4, 5-(4-methylbenzoyl)-6-methoxy-2-naphthalenesulfonamide] |  | % Inhibition of paw edema ([1]; 10 mg/Kg): 26.41%; % Inhibition of air pouch PGE2 formation (PGE2; 10 mg/Kg): 74.6% |
|  |  | COc1ccc2cc(S(N)(=O)=O)ccc2c1C(=O)c1ccccc1Br [compound 17] | 19.56% |  |
| 0.3 µM | 100 µM | NS(=O)(=O)c1ccc2c(C(=O)c3ccc(F)cc3)c(Cl)ccc2c1 [compound 66, 5-(4-fluorobenzoyl)-6-chloro-2-naphthalenesulfonamide] |  | % Inhibition of paw edema ([1]; 12 mg/Kg): 30%; % Inhibition of air pouch PGE2 formation (PGE2; 1 mg/Kg): 50% |
| 2.73 µM | 1000 µM | CS(=O)(=O)c1ccc2c(C(=O)c3ccc(F)cc3)cccc2c1 [compound 95, 5-(4-fluorobenzoyl)-2-methylsulfonylnaphthalene] | 15.5% |  |
| 0.7 µM | 0.9 µM | N#Cc1ccc2cc(S(N)(=O)=O)ccc2c1C(=O)c1ccc(F)cc1 [compound 64, 5-(4-fluorobenzoyl)-6-cyano-2-naphthalenesulfonamide] |  | % Inhibition of paw edema ([1]; 6 mg/Kg): 30%; % Inhibition of air pouch PGE2 formation (PGE2; 0.5 mg/Kg): 50% |
| 2 µM | 40.9 µM | COc1ccc2cc(S(N)(=O)=O)ccc2c1C(=O)c1ccc(F)cc1C(F)(F)F [compound 42] |  |  |
|  |  | COc1ccc2c(c1)c(CC(=O)O)c(C)n2C(=O)c1ccc(Cl)cc1 [Indomethacin, reference compound] |  | inhibition of cognitive decline of Alzheimer's patients (Alzheimer's patients): inhibit the cognitive decline of Alzheimer's patients; % Inhibition of air pouch PGE2 formation (PGE2; 2-5 mg/Kg): > 70% |
| 0.8 µM | > 100 µM | CS(=O)(=O)c1ccc2c(C(=O)c3ccc(F)cc3)c(C#N)ccc2c1 [compound 96, 5-(4-fluorobenzoyl)-6-cyano-2-methylsulfonylnaphthalene] | 38% | % Inhibition of air pouch PGE2 formation (PGE2; 1 mg/Kg): 90% |
| 0.56 µM | 0.46 µM | CCOc1ccc2cc(S(N)(=O)=O)ccc2c1C(=O)c1ccc(F)cc1 [compound 5] | 27.49% |  |
| 0.25 µM | > 100 µM | CS(=O)(=O)c1ccc2c(C(=O)c3ccc(Cl)cc3)c(Cl)ccc2c1 [compound 100] |  | % Inhibition of air pouch PGE2 formation (PGE2; 3 mg/Kg): 63% |
| 0.7 µM | 300 µM | Cc1ccc2cc(S(N)(=O)=O)ccc2c1C(=O)c1ccc(F)cc1 [compound 65, 5-(4-fluorobenzoyl)-6-methyl-2-naphthalenesulfonamide] |  | % Inhibition of paw edema ([1]; 12 mg/Kg): 30%; % Inhibition of air pouch PGE2 formation (PGE2; 2 mg/Kg): 50% |
| 0.45 µM | 6 µM | COc1ccc2cc(S(N)(=O)=O)ccc2c1C(=O)c1ccc(F)cc1F [compound 20] | 33.85% | % Inhibition of air pouch PGE2 formation (PGE2; 10 mg/Kg): 100% |
| 7.84 µM | 436 µM | CS(=O)(=O)c1ccc2c(C(=O)c3ccccc3)c(O)ccc2c1 [compound 93, 5-benzoyl-6-hydroxy-2-methylsulfonylnaphthalene] | 6.25% |  |
| 0.5 µM | > 100 µM | CS(=O)(=O)c1ccc2c(C(=O)c3ccccc3F)c(C#N)ccc2c1 [compound 99, 5-(2-fluorobenzoyl)-6-cyano-2-methylsulfonylnaphthalene] |  | % Inhibition of paw edema ([1]; 10 mg/Kg): 38%; % Inhibition of air pouch PGE2 formation (PGE2; 3 mg/Kg): 86% |
| 0.92 µM | 90.8 µM | COc1ccc2cc(S(C)(=O)=O)ccc2c1C(=O)c1ccc(F)cc1 [compound 91, 5-(4-fluorobenzoyl)-6-methoxy-2-methylsulfonylnaphthalene] |  | % Inhibition of paw edema ([1]; 10 mg/Kg): 29.48%; % Inhibition of air pouch PGE2 formation (PGE2; 30 mg/Kg): 58.1% |
| 0.076 µM | 47.7 µM | COc1ccc2cc(S(N)(=O)=O)ccc2c1C(=O)c1ccccc1F [compound 14, 5-(2-fluorobenzoyl)-6-methoxy-2-naphthalenesulfonamide] |  | % Inhibition of air pouch PGE2 formation (PGE2; 10 mg/Kg): 58.8% |
| 1.5 µM | 97 µM | COc1ccc2cc(S(C)(=O)=O)ccc2c1C(=O)c1ccc(C)cc1 [compound 103] |  |  |
|  |  | COc1ccc2cc(S(N)(=O)=O)ccc2c1C(=O)c1ccccc1 [compound 23, 5-benzoyl-6-methoxy-2-naphthalenesulfonamide] |  | % Inhibition of air pouch PGE2 formation (PGE2; 10 mg/Kg): 70.7% |
| 5.9 µM | 646 µM | CS(=O)(=O)c1ccc2c(C(=O)c3ccc(F)cc3)c(O)ccc2c1 [compound 92, 5-(4-fluorobenzoyl)-6-hydroxy-2-methylsulfonylnaphthalene] | 19.88% |  |
| 0.57 µM | 93 µM | CS(=O)(=O)c1ccc2c(C(=O)c3ccc(Cl)cc3)c(C#N)ccc2c1 [compound 104, 5-(4-chlorobenzoyl)-6-cyano-2-methylsulfonylnaphthalene] | 33% | % Inhibition of air pouch PGE2 formation (PGE2; 1 mg/Kg): 76.5% |
| 2.43 µM | 805 µM | COc1ccc2cc(S(C)(=O)=O)ccc2c1C(=O)c1ccccc1 [compound 94, 5-benzoyl-6-methoxy-2-methylsulfonylnaphthalene] |  | % Inhibition of air pouch PGE2 formation (PGE2; 10 mg/Kg): 17.6% |
| 0.51 µM | 20 µM | COc1ccc2cc(S(N)(=O)=O)ccc2c1C(=O)c1ccc(F)cc1 [compound 1, 5-(4-fluorobenzoyl)-6-methoxy-2-naphthalenesulfonamide] |  | % Inhibition of paw edema ([1]; 10 mg/Kg): 29.94%; % Inhibition of air pouch PGE2 formation (PGE2; 10 mg/Kg): 92% |
